As usually defined, the solubility is the dissolved amount per volume that the medium holds. A high value points to a readily soluble substance. By inhibition is commonly meant the change of the read-out against control, counted positive when it falls.

In brackets after ≈: the same amount, converted by molar mass.

On the set-up of data set [1]: method as in PMID 33205981. Particulars: in vitro, whole blood; cited from earlier work.
A short description of data set [2]: Pharmacokinetics study in rats, whole blood PP10-acid. Format: in vivo, Sprague-Dawley rats. To be noted: rat, all analyses. The procedure: A single-dose one-period parallel design was utilized to investigate the pharmacokinetics of pure PP10, the polymeric-PP10 binary systems with PVP-K90 and HP-β-CD, and the PP10-TPGS aqueous micelle solution formulation. The study was conducted according to the guidelines of Good Clinical Practice (GCP), the International Conference on Harmonization (ICH), and the European Medicines Agency (EMA). The protocol for the animal study received prior approval from the Research Ethics Committee, Faculty of Pharmacy, King Abdulaziz University, Saudi Arabia (reference no. PH-1442-68) in 04/03/2021.
Male Sprague-Dawley rats (300–350 g) were used. The animals were maintained on a 12 h light/dark cycle (lights-on at 7 a.m.) with free access to food and water in a temperature-controlled room. After 7 days of acclimatization, animals were classified into four groups (n = 6). Group I was administered oral drug tablets containing pure drug (positive control). Group II was given oral drug tablets containing PP10-PVP K90 binary system. […]
The concentration of the parent PP10 and PP10-acid metabolite in the whole blood samples were determined using a gradient elution HPLC chromatographic condition using a Waters Symmetry Shield C18 (Waters, MA, USA), 5 µm 3.9 × 150 mm column, and a Waters 2998 PDA detector (Waters, MA, USA) with detection wavelength adjusted to 274 nm. […]

For another data set, the target named is T1, HbS (Homo sapiens, UniProt P68871+P69905, E7V).
T1 construct: tested using homozygous sickle cell (SS) blood for their pharmacologic activities; from tissue; host or cells: Whole blood (red blood cells) from individuals with homozygous sickle cell disease
Description: Hb modification (Hb adduct formation), cation-exchange HPLC. Format: cell-based. Particulars: SS blood, 0.5, 1 and 2 mM. The protocol: (§1) The parent PP10, its acid metabolite PP10-acid, and the sodium salt PP10-NaSalt were tested using homozygous sickle cell (SS) blood for their pharmacologic activities. Leftover blood samples from individuals with SS were obtained (based on an approved IRB protocol at the Children’s Hospital of Philadelphia, with informed consent) and used for in vitro antisickling, Hb modification, and oxygen equilibrium studies following methods previously published by our group. For the antisickling study, SS blood samples (hematocrit 20%) were incubated under air in the absence or presence of PP10, PP10-acid, or PP10-NaSalt (0.5 mM, 1 mM, and 2 mM) at 37 °C for 1 h, followed by incubation of the mixture under hypoxic conditions (2.5% O2/97.5% N2) at 37 °C for 2 h. […]
(§2) Residual samples from the above study were washed in phosphate-buffered saline and hemolyzed by hypotonic lysis in deionized water for the oxygen equilibrium and Hb modification (Hb adduct formation) studies. […] The areas of new peaks, representing HbS adducts, were obtained, calculated as percentages of total Hb area, and reported as levels of modified Hb or Hb adduct. […] Degree of Hb O2 affinity shift (ΔP50) was expressed as percentage of control DMSO-treated samples.

Data set [3] in a line: Stability of PP10 at different pHs (HPLC, MASS scan). Format: physicochemical. The protocol:
The parent PP10 could hydrolyze into the corresponding PP10-acid either chemically (acid/base hydrolysis) or by the action of esterase in the blood, which could affect the PK and/or PD properties. This potential hydrolysis behavior was studied by investigating the stability of the parent methylester compound in buffer at different pHs, and in blood. To examine potential chemical degradation, a solution of PP10 (2 mg/mL) was prepared in methanol. Known volume (1 mL) of this methanol solution was diluted with a definite volume (20 mL) of buffer at pH 1.2, 5.5, or 7.4, corresponding to the gastric pH, the pH of the proximal small intestine, and the pH of the terminal ileum or physiological body fluids, respectively. Methanolic drug solution of the same concentration was also prepared as a reference. The different pH mixtures were incubated in a water bath at 37 °C overnight. The high-performance liquid chromatography (HPLC) chromatogram of the parent compound (methanolic drug solution) was compared with the corresponding drug buffer samples. The molecular weight of degraded product(s) was investigated using MASS scan. Details of the apparatus and conditions are described below.

Data set [4] can be described thus: Equilibrium aqueous solubility of PP10 and polymeric-PP10 binary systems. It counts as physicochemical. To be noted: distilled water, 25 °C. The protocol:
The equilibrium solubility of pure PP10 and the three polymeric drug binary systems with PVP-K90, Eudragit L100-55, or HP-β-CD were studied to investigate the effect of the complexation on the aqueous solubility of PP10. An excess quantity of the pure drug or the prepared binary systems was added to 5 mL of distilled water in a screw-capped vial and transferred to a thermostatically controlled shaking water bath (Model 1031; GFL Corporation, Burgwedel, Germany) at 25 ± 0.5 °C for 72 h. […] Drug stock solution was prepared in methanol and different standard drug solutions in the range of 2–10 µg/mL were prepared. The absorbance of the prepared standard solutions was measured, resulting in a correlation coefficient (R^2) of 0.9986.

The test system of data set [5] is sickle red blood cell (SS blood). Kind of data set: In vitro antisickling study with sickle whole blood. It counts as cell-based, human. Particulars: for antisickling effect (RBC sickling inhibition): SS blood HCT 20%, 0.5, 1 and 2 mM, hypoxia 2.5% O2. The protocol: The parent PP10, its acid metabolite PP10-acid, and the sodium salt PP10-NaSalt were tested using homozygous sickle cell (SS) blood for their pharmacologic activities. Leftover blood samples from individuals with SS were obtained (based on an approved IRB protocol at the Children’s Hospital of Philadelphia, with informed consent) and used for in vitro antisickling, Hb modification, and oxygen equilibrium studies following methods previously published by our group. For the antisickling study, SS blood samples (hematocrit 20%) were incubated under air in the absence or presence of PP10, PP10-acid, or PP10-NaSalt (0.5 mM, 1 mM, and 2 mM) at 37 °C for 1 h, followed by incubation of the mixture under hypoxic conditions (2.5% O2/97.5% N2) at 37 °C for 2 h. Aliquots were fixed with 2% glutaraldehyde solution in sodium cacodylate buffer, pH 7.4, without exposure to air, and then subjected to microscopic morphological analysis of bright field images (at 40× magnification) of single layer cells on an Olympus BX40 microscope fitted with an Infinity 2 camera and coupled with Image Capture cellSens software (Olympus, Tokyo, Japan).

Another data set concerns Hb. Kind of data set: Hb oxygen equilibrium study (Hemox Analyzer, P50 shift). Format: cell-based, human. Particulars: 2 mM, SS blood. The procedure: as §1, §2

As to `COC(=O)c1cccc(COc2cccc(O)c2C=O)n1` [PP10, Methyl 6-((2-formyl-3-hydroxyphenoxy)methyl) picolinate], the “parent PP10 hydrolyzed into the PP10-acid metabolite” value in data set [1] is “about 20%”. In addition, the “parent PP10 compound in whole blood after dosing” value in data set [2] was “No parent PP10 compound (PP10) was observed in any of the analyses”. Moreover, on HbS, the Hb adduct formation result is “highest Hb adduct formation”. The “stability (hydrolysis to PP10-acid)” value in data set [3] (buffer pH 1.2, 37 °C overnight) was “most significant degradation”; in data set [3] (buffer pH 5.5, 37 °C overnight) it was “degrades into the acid form”; in data set [3] (buffer pH 7.4, 37 °C overnight) it was “degrades into the acid form”. Moreover, in data set [3] (straight methanol, 37 °C overnight), the stability entry is listed as “stable”. In addition, in data set [4], the solubility at 72 h stood at 12 ± 2 µg/mL (≈ 41.8 µM). The inhibition at 2000 µM in data set [5] (Homo sapiens, Erythrocyte, 2 mM, SS blood, read-out: RBC sickling inhibition more than PP10-acid) was determined as 36%. Besides, the “antisickling effect (RBC sickling inhibition)” value in data set [5] is on record as “dose-dependent antisickling effect”.
Take `O=Cc1c(O)cccc1OCc1cccc(C(=O)[O-])n1.[Na+]` [PP10-NaSalt]: the Hb adduct formation entry at HbS was “significantly less adduct formation”. Besides, the “antisickling effect (RBC sickling inhibition)” value in data set [5] is “almost no activity”.
In the case of `O=Cc1c(O)cccc1OCc1cccc(C(=O)O)n1` [PP10-acid], in the data set with Hb, the “increase of Hb oxygen affinity compared with the ester (PP10)” value is “about 30%”. Moreover, in data set [5], the “antisickling effect (RBC sickling inhibition)” value is “dose-dependent antisickling effect”.

Values taken from article PMC8401948, “Improving the Solubility and Oral Bioavailability of a Novel Aromatic Aldehyde Antisickling Agent (PP10) for the Treatment of Sickle Cell Disease” (Pharmaceutics, 2021).
